From US20190031676A1, “ANTIBACTERIAL ANNULATED PYRROLIDIN-2-ONE DERIVATIVES” (priority 2015, published 2019) come the findings set out here.

Converted amounts (≈) assume the structure as drawn.

By MIC is commonly meant the lowest concentration found to suppress growth. Read a low MIC as a more susceptible organism.

What all share (assay): Bacterial growth minimal inhibitory concentration (microdilution, cation-adjusted Mueller-Hinton Broth)
Assay type in all cases: cell-based
Background: Dilution methods test growth across graded concentrations, often in twofold steps.

For one assay, the system named is E. coli ATCC25922. The conditions noted are these: quinolone-sensitive strain; for MIC: Escherichia coli, ATCC25922. The protocol:
(§1) Minimal Inhibitory Concentrations (MICs; mg/L) were determined in cation-adjusted Mueller-Hinton Broth by a microdilution method following the description given in “Methods for Dilution Antimicrobial Susceptibility Tests for Bacteria that grow Aerobically”, Approved standard, 7th ed., Clinical and Laboratory Standards Institute (CLSI) Document M7-A7, Wayne, Pa., USA (2006).
(§2) All Example compounds were tested against several Gram-positive and Gram-negative bacteria. […] K. pneumoniae A-651 is a multiply-resistant strain (in particular quinolone-resistant), while E. coli ATCC25922 and P. aeruginosa ATCC27853 are quinolone-sensitive strains.

A further assay has as its system K. pneumoniae A-651. The conditions noted are these: multiply-resistant strain (in particular quinolone-resistant); for MIC: Klebsiella pneumoniae, A651. The protocol:
as §1, §2

The subject of a further assay is P. aeruginosa ATCC27853. As to conditions: quinolone-sensitive strain; for MIC: Pseudomonas aeruginosa, ATCC27853. The protocol: as §1, §2

As for `C[C@@](CCN1Cc2cc(C#CC#C[C@@H]3C[C@@H](O)[C@@H](O)C3)sc2C1=O)(C(=O)NO)S(C)(=O)=O` [Example 21, (2R)-4-(2-(((1S,3R,4S)-3,4-dihydroxycyclopentyl)buta-1,3-diyn-1-yl)-6-oxo-4,6-dihydro-5H-thieno[2,3-c]pyrrol-5-yl)-N-hydroxy-2-methyl-2-(methylsulfonyl)butanamide], the “MIC for E. coli ATCC25922” value against E. coli ATCC25922 stood at 0.5 µg/mL. For the same compound, the “MIC for K. Pneumoniae A-651” value against K. pneumoniae A-651 stood at 2 µg/mL. Further, the “MIC for P. aeruginosa ATCC27853” value against P. aeruginosa ATCC27853 is 1 µg/mL.

Consider `C[C@@](CCN1Cc2cc(C#CC#C[C@H]3C[C@@H]3[C@@H](O)CO)sc2C1=O)(C(=O)NO)S(C)(=O)=O` [Example 22, (2R)-4-(2-(((1S,2S)-2-((2R)-1,2-dihydroxyethyl)cyclopropyl)buta-1,3-diyn-1-yl)-6-oxo-4,6-dihydro-5H-thieno[2,3-c]pyrrol-5-yl)-N-hydroxy-2-methyl-2-(methylsulfonyl)butanamide], for which, in the assay on E. coli ATCC25922, the “MIC for E. coli ATCC25922” value came out at 0.5 µg/mL. Moreover, the “MIC for K. Pneumoniae A-651” value in the assay on K. pneumoniae A-651 came out at 1 µg/mL. The “MIC for P. aeruginosa ATCC27853” value against P. aeruginosa ATCC27853 is 1 µg/mL.

As to `C[C@@](CCN1Cc2cc(C#CC#CC3CN(CCF)C3)sc2C1=O)(C(=O)NO)S(C)(=O)=O` [Example 23, (2R)-4-(2-((1-(2-fluoroethyl)azetidin-3-yl)buta-1,3-diyn-1-yl)-6-oxo-4,6-dihydro-5H-thieno[2,3-c]pyrrol-5-yl)-N-hydroxy-2-methyl-2-(methylsulfonyl)butanamide], the figures for the minimum inhibitory concentration (MIC) against E. coli ATCC25922, against K. pneumoniae A-651 and against P. aeruginosa ATCC27853 were 0.063 µg/mL (≈ 0.131 µM), 0.25 µg/mL (≈ 0.519 µM) and 1 µg/mL (≈ 2.08 µM), respectively.

With `CC(C)N1CC(C#CC#Cc2cc3c(s2)C(=O)N(CC[C@](C)(C(=O)NO)S(C)(=O)=O)C3)C1` [Example 24, (R)—N-hydroxy-4-(2-((1-isopropylazetidin-3-yl)buta-1,3-diyn-1-yl)-6-oxo-4,6-dihydro-5H-thieno[2,3-c]pyrrol-5-yl)-2-methyl-2-(methylsulfonyl)butanamide], the MIC is 0.25 µg/mL (≈ 0.523 µM) with E. coli ATCC25922, 0.5 µg/mL (≈ 1.05 µM) in the assay with K. pneumoniae A-651 and 1 µg/mL (≈ 2.09 µM) with P. aeruginosa ATCC27853.

As for `CC(C)(O)CN1CC(C#CC#Cc2cc3c(s2)C(=O)N(CC[C@](C)(C(=O)NO)S(C)(=O)=O)C3)C1` [Example 25, (2R)—N-hydroxy-4-(2-((1-(2-hydroxy-2-methylpropyl)azetidin-3-yl)buta-1,3-diyn-1-yl)-6-oxo-4,6-dihydro-5H-thieno[2,3-c]pyrrol-5-yl)-2-methyl-2-(methylsulfonyl)butanamide], the MIC in the assay with E. coli ATCC25922, against K. pneumoniae A-651 and in the assay on P. aeruginosa ATCC27853 was 1 µg/mL (≈ 1.97 µM) each time.

`C[C@@](CCN1Cc2cc(C#Cc3ccc(C4CN(C5COC5)C4)cc3)sc2C1=O)(C(=O)NO)S(C)(=O)=O` [Example 26, (2R)—N-hydroxy-2-methyl-2-(methylsulfonyl)-4-(2-((4-(1-(oxetan-3-yl)azetidin-3-yl)phenyl)ethynyl)-6-oxo-4,6-dihydro-H-thieno[2,3-c]pyrrol-5-yl)butanamide]: in the assay on E. coli ATCC25922, the “MIC for E. coli ATCC25922” value was 0.25 µg/mL. The “MIC for K. Pneumoniae A-651” value in the assay with K. pneumoniae A-651 was found to be 0.25 µg/mL. Besides, in the assay on P. aeruginosa ATCC27853, the “MIC for P. aeruginosa ATCC27853” value was determined as 2 µg/mL.

Take `C[C@@](CCN1Cc2cc(C#CC#CC3CN(C4CCOCC4)C3)sc2C1=O)(C(=O)NO)S(C)(=O)=O` [Example 27, (2R)—N-hydroxy-2-methyl-2-(methylsulfonyl)-4-(6-oxo-2-((1-(tetrahydro-2H-pyran-4-yl)azetidin-3-yl)buta-1,3-diyn-1-yl)-4,6-dihydro-5H-thieno[2,3-c]pyrrol-5-yl)butanamide]: the MIC worked out at 0.125 µg/mL (≈ 0.241 µM) against E. coli ATCC25922, 0.25 µg/mL (≈ 0.481 µM) in the assay on K. pneumoniae A-651 and 1 µg/mL (≈ 1.92 µM) against P. aeruginosa ATCC27853.

`C[C@@](CCN1Cc2cc(C#CC#CC3CN(CC4COC4)C3)sc2C1=O)(C(=O)NO)S(C)(=O)=O` [Example 28, (2R)—N-hydroxy-2-methyl-2-(methylsulfonyl)-4-(2-((1-(oxetan-3-ylmethyl)azetidin-3-yl)buta-1,3-diyn-1-yl)-6-oxo-4,6-dihydro-5H-thieno[2,3-c]pyrrol-5-yl)butanamide]: the MIC in the assay with E. coli ATCC25922 was found to be 0.25 µg/mL (≈ 0.494 µM); against K. pneumoniae A-651, 0.5 µg/mL (≈ 0.989 µM); with P. aeruginosa ATCC27853 it was 2 µg/mL (≈ 3.96 µM).

Regarding `C[C@@](CCN1Cc2cc(C#Cc3ccc(C4CN(C5COC5)C4)cc3)sc2C1=O)(C(=O)NO)S(C)(=O)=O` [Example 29, (2R)—N-hydroxy-2-methyl-2-(methylsulfonyl)-4-(2-((4-(1-(oxetan-3-yl)azetidin-3-yl)phenyl)ethynyl)-6-oxo-4,6-dihydro-H-thieno[2,3-c]pyrrol-5-yl)butanamide], the “MIC for E. coli ATCC25922” value against E. coli ATCC25922 stood at 0.25 µg/mL. For the same compound, in the assay on K. pneumoniae A-651, the “MIC for K. Pneumoniae A-651” value amounted to 1 µg/mL. The “MIC for P. aeruginosa ATCC27853” value against P. aeruginosa ATCC27853 stood at 2 µg/mL.

In the case of `C[C@@](CCN1Cc2cc(C#CC#C[C@H]3C[C@@H]3CN3CC(F)C3)sc2C1=O)(C(=O)NO)S(C)(=O)=O` [Example 30, (2R)-4-(2-(((1S,2S)-2-((3-fluoroazetidin-1-yl)methyl)cyclopropyl)buta-1,3-diyn-1-yl)-6-oxo-4,6-dihydro-5H-thieno[2,3-c]pyrrol-5-yl)-N-hydroxy-2-methyl-2-(methylsulfonyl)butanamide], the values for the MIC with E. coli ATCC25922, against K. pneumoniae A-651 and against P. aeruginosa ATCC27853 were 0.125 µg/mL (≈ 0.246 µM), 1 µg/mL (≈ 1.97 µM) and 2 µg/mL (≈ 3.94 µM), respectively.

Regarding `C[C@@](CCN1Cc2cc(C#CC#CC3CN([C@H]4C[C@@H](O)C4)C3)sc2C1=O)(C(=O)NO)S(C)(=O)=O` [Example 31, (2R)—N-hydroxy-4-(2-((1-((1s,3s)-3-hydroxycyclobutyl)azetidin-3-yl)buta-1,3-diyn-1-yl)-6-oxo-4,6-dihydro-5H-thieno[2,3-c]pyrrol-5-yl)-2-methyl-2-(methylsulfonyl)butanamide], the “MIC for E. coli ATCC25922” value in the assay with E. coli ATCC25922 is 0.5 µg/mL. For the same compound, the “MIC for K. Pneumoniae A-651” value in the assay with K. pneumoniae A-651 is 0.5 µg/mL. The “MIC for P. aeruginosa ATCC27853” value with P. aeruginosa ATCC27853 came to 1 µg/mL.

As to `C[C@@](CCN1Cc2cc(C#CC#CC3CN(C4CC(O)C4)C3)sc2C1=O)(C(=O)NO)S(C)(=O)=O` (stereo partly drawn) [Example 32, (2R)—N-hydroxy-4-(2-((1-((1r,3r)-3-hydroxycyclobutyl)azetidin-3-yl)buta-1,3-diyn-1-yl)-6-oxo-4,6-dihydro-5H-thieno[2,3-c]pyrrol-5-yl)-2-methyl-2-(methylsulfonyl)butanamide], the “MIC for E. coli ATCC25922” value against E. coli ATCC25922 was 0.25 µg/mL. In addition, the “MIC for K. Pneumoniae A-651” value in the assay on K. pneumoniae A-651 stood at 0.5 µg/mL. Besides, the “MIC for P. aeruginosa ATCC27853” value in the assay on P. aeruginosa ATCC27853 was 1 µg/mL.

Turning to `C[C@@](CCN1Cc2cc(C#Cc3ccc(CCO)cc3)ccc2C1=O)(C(=O)NO)S(C)(=O)=O` [Example 33, (2R)—N-hydroxy-4-(5-((4-(2-hydroxyethyl)phenyl)ethynyl)-1-oxoisoindolin-2-yl)-2-methyl-2-(methylsulfonyl)butanamide], the minimum inhibitory concentration (MIC) came out at 0.125 µg/mL (≈ 0.266 µM) in the assay with E. coli ATCC25922, 0.5 µg/mL (≈ 1.06 µM) against K. pneumoniae A-651 and 2 µg/mL (≈ 4.25 µM) with P. aeruginosa ATCC27853.

Turning to `C[C@@](CCN1Cc2cc(C#CC#CC3CN(C(=O)OCCCO)C3)sc2C1=O)(C(=O)NO)S(C)(=O)=O` [Example 34, 3-hydroxypropyl (2R)-3-((5-(4-(hydroxyamino)-3-methyl-3-(methylsulfonyl)-4-oxobutyl)-6-oxo-5,6-dihydro-4H-thieno[2,3-c]pyrrol-2-yl)buta-1,3-diyn-1-yl)azetidine-1-carboxylate], the “MIC for E. coli ATCC25922” value with E. coli ATCC25922 was 0.25 µg/mL. Besides, in the assay on K. pneumoniae A-651, the “MIC for K. Pneumoniae A-651” value worked out at 0.5 µg/mL. Further, in the assay with P. aeruginosa ATCC27853, the “MIC for P. aeruginosa ATCC27853” value worked out at 1 µg/mL.

As for `CN1C[C@@H](C#CC#Cc2cc3c(s2)C(=O)N(CC[C@](C)(C(=O)NO)S(C)(=O)=O)C3)[C@@H]1CO` [Example 35, (2R)—N-hydroxy-4-(2-(((2R,3R)-2-(hydroxymethyl)-1-methylazetidin-3-yl)buta-1,3-diyn-1-yl)-6-oxo-4,6-dihydro-5H-thieno[2,3-c]pyrrol-5-yl)-2-methyl-2-(methylsulfonyl)butanamide], the MIC came out at 0.5 µg/mL (≈ 1.04 µM) against E. coli ATCC25922, 2 µg/mL (≈ 4.17 µM) against K. pneumoniae A-651 and 1 µg/mL (≈ 2.09 µM) against P. aeruginosa ATCC27853.

With `CN1C[C@@H](C#CC#Cc2cc3c(s2)C(=O)N(CC[C@](C)(C(=O)NO)S(C)(=O)=O)C3)C[C@@H]1CO` [Example 36, (2R)—N-hydroxy-4-(2-(((3R,5R)-5-(hydroxymethyl)-1-methylpyrrolidin-3-yl)buta-1,3-diyn-1-yl)-6-oxo-4,6-dihydro-5H-thieno[2,3-c]pyrrol-5-yl)-2-methyl-2-(methylsulfonyl)butanamide], the results for the MIC in the assay with E. coli ATCC25922, in the assay on K. pneumoniae A-651 and with P. aeruginosa ATCC27853 were 0.5 µg/mL (≈ 1.01 µM), 1 µg/mL (≈ 2.03 µM) and 1 µg/mL (≈ 2.03 µM), respectively.

Take `C[C@@](CCN1Cc2cc(C#CC#CC3CN(CC4(O)COC4)C3)sc2C1=O)(C(=O)NO)S(C)(=O)=O` [Example 39, (2R)—N-hydroxy-4-(2-((1-((3-hydroxyoxetan-3-yl)methyl)azetidin-3-yl)buta-1,3-diyn-1-yl)-6-oxo-4,6-dihydro-5H-thieno[2,3-c]pyrrol-5-yl)-2-methyl-2-(methylsulfonyl)butanamide]: the MIC against E. coli ATCC25922 was found to be 1 µg/mL (≈ 1.92 µM); with K. pneumoniae A-651 it was 2 µg/mL (≈ 3.83 µM); against P. aeruginosa ATCC27853, 2 µg/mL (≈ 3.83 µM).

Regarding `CN1[C@@H](CO)C[C@@H]1C#CC#Cc1cc2c(s1)C(=O)N(CC[C@](C)(C(=O)NO)S(C)(=O)=O)C2` [Example 40, (2R)—N-hydroxy-4-(2-(((2R,4R)-4-(hydroxymethyl)-1-methylazetidin-2-yl)buta-1,3-diyn-1-yl)-6-oxo-4,6-dihydro-5H-thieno[2,3-c]pyrrol-5-yl)-2-methyl-2-(methylsulfonyl)butanamide], the MIC is 0.25 µg/mL (≈ 0.521 µM) in the assay on E. coli ATCC25922, 2 µg/mL (≈ 4.17 µM) against K. pneumoniae A-651 and 1 µg/mL (≈ 2.09 µM) against P. aeruginosa ATCC27853.
